How the values were obtained:
[1] = Dissolution experiments with TMC125/nicotinamide co-crystal (10 mM HCl with 1% TPGS, HPLC); format: physicochemical; details: Simulated Gastric Fluid with 1% TPGS, 37° C., 500 rpm
Experimental: This dissolution experiment was focused on looking at the difference between the cocrystal and TMC125 free base both neat and mixed with HPMC E5 Cps.
A: 100 mg co-crystal: 100 mg HPMC E5 Cps (powder blend)
B: 100 mg co-crystal (powder)
C: 78 mg free base: 100 mg HPMC E5 Cps (powder blend)
D: 78 mg free base (powder)
Powders were dispensed to 20 mL vials and in 20 mL of 10 mM HCl with 1% TPGS (d-alpha-tocopheryl polyethylene glycol 1000 succinate) was added to each vial. Each […], filtered through a 0.45 μm nylon filter via centrifugation and the solute was diluted in half and analyzed by HPLC for the concentration of TMC125.

[2] = cited from earlier work
[3] = traditional formulations; cited from earlier work

Concentration of TMC125 ([1]; time 5 min): 22.36 µg/mL
Concentration of TMC125 ([1]; time 10 min): 52.04 µg/mL
Concentration of TMC125 ([1]; time 20 min): 57.03 µg/mL
Concentration of TMC125 ([1]; time 30 min): 58.96 µg/mL
Concentration of TMC125 ([1]; time 45 min): 59.83 µg/mL
Concentration of TMC125 ([1]; time 60 min): 60.10 µg/mL
Compound: Cc1cc(C#N)cc(C)c1Oc1nc(Nc2ccc(C#N)cc2)nc(N)c1Br [Neat TMC125 FB, 4-[[6-amino-5-bromo-2-[(4-cyanophenyl)amino]-4-pyrimidinyl]oxy]-3,5-dimethylbenzonitrile]
solubility in aqueous media [2]: very insoluble
bioavailability [3]: very low

Source: patent US8754093B2, “Co-crystal of etravirine and nicotinamide” (Janssen R&D Ireland, priority 2009, dated 2014)
